Experimental data taken from patent US4731451A, “N-((2-oxo-3(2H)benzothiazolyl)methyl)-2-chloroacetanilides” (Monsanto Company, priority 1980, dated 1988).

Columns and labels:
Assay type in all cases: in vivo
Barnyardgrass [1] = experiment: Pre-emergent herbicidal activity (Table III)
Experimental: (§1) The pre-emergence tests are conducted as follows:
(§2) A good grade of top soil is placed in aluminum pans and compacted to a depth of three-eighths to one-half inch from the top of the pan. On the top of the soil is placed a predetermined number of seeds or vegetative propagules of various plant species. The soil required to level fill the pans after seeding or adding vegetative propagules is weighed into a pan. A known amount of the active ingredient applied in a solvent or as a wettable powder suspension and the soil are thoroughly mixed, and used as a cover layer for prepared pans. After treatment, the pans are moved into a greenhouse bench where they are watered from below as needed to give adequate moisture for germination and growth.
(§3) Approximately 2-3 weeks after seeding and treating, the plants are observed and the results recorded. The herbicidal rating is obtained by means of fixed scale based on the percent injury of each plant species. The ratings are defined as follows: […]
(§4) The compounds were further tested by utilizing the above procedure on the following plant species: […]

Sorghum = experiment: Pre-emergent herbicidal activity (Table III)
Experimental: as §1, §2, §3, §4

Soybean = experiment: Pre-emergent herbicidal activity (Table III)
Experimental: as §1, §2, §3, §4

Cocklebur [2] = experiment: Pre-emergent herbicidal activity (Table III)
Experimental: as §1, §2, §3, §4

Smartweed [3] = experiment: Pre-emergent herbicidal activity (Table III)
Experimental: as §1, §2, §3, §4

Crabgrass = experiment: Pre-emergent herbicidal activity (Table III)
Experimental: as §1, §2, §3, §4

Wild Buckwheat = experiment: Pre-emergent herbicidal activity (Table III)
Experimental: as §1, §2, §3, §4

Morningglory [4] = experiment: Pre-emergent herbicidal activity (Table III)
Experimental: as §1, §2, §3, §4

Panicum = experiment: Pre-emergent herbicidal activity (Table III)
Experimental: as §1, §2, §3, §4

Wheat = experiment: Pre-emergent herbicidal activity (Table III)
Experimental: as §1, §2, §3, §4

Lambsquarters [5] = experiment: Pre-emergent herbicidal activity (Table III)
Experimental: as §1, §2, §3, §4

Velvetleaf [6] = experiment: Pre-emergent herbicidal activity (Table III)
Experimental: as §1, §2, §3, §4

Rice = experiment: Pre-emergent herbicidal activity (Table III)
Experimental: as §1, §2, §3, §4

Sugarbeet = experiment: Pre-emergent herbicidal activity (Table III)
Experimental: as §1, §2, §3, §4

Hemp Sesbania = experiment: Pre-emergent herbicidal activity (Table III)
Experimental: as §1, §2, §3, §4

Downy Brome [7] = experiment: Pre-emergent herbicidal activity (Table III)
Experimental: as §1, §2, §3, §4

Barnyardgrass [8] = experiment: Pre-emergent herbicidal activity (Table II); conditions: 2-3 weeks
Experimental: as §1, §2, §3
(§5) The plant species utilized in one set of tests, the data for which are shown in Table II, are identified by letter in accordance with the following legend: […]

Yellow Nutsedge = experiment: Pre-emergent herbicidal activity (Table II); conditions: 2-3 weeks
Experimental: as §1, §2, §3, §5

Cocklebur [9] = experiment: Pre-emergent herbicidal activity (Table II); conditions: 2-3 weeks
Experimental: as §1, §2, §3, §5

Smartweed [10] = experiment: Pre-emergent herbicidal activity (Table II); conditions: 2-3 weeks
Experimental: as §1, §2, §3, §5

Canada Thistle = experiment: Pre-emergent herbicidal activity (Table II); conditions: 2-3 weeks
Experimental: as §1, §2, §3, §5

Johnsongrass = experiment: Pre-emergent herbicidal activity (Table II); conditions: 2-3 weeks
Experimental: as §1, §2, §3, §5

Quackgrass = experiment: Pre-emergent herbicidal activity (Table II); conditions: 2-3 weeks
Experimental: as §1, §2, §3, §5

Morningglory [11] = experiment: Pre-emergent herbicidal activity (Table II); conditions: 2-3 weeks
Experimental: as §1, §2, §3, §5

Lambsquarters [12] = experiment: Pre-emergent herbicidal activity (Table II); conditions: 2-3 weeks
Experimental: as §1, §2, §3, §5

Velvetleaf [13] = experiment: Pre-emergent herbicidal activity (Table II); conditions: 2-3 weeks
Experimental: as §1, §2, §3, §5

Downy Brome [14] = experiment: Pre-emergent herbicidal activity (Table II); conditions: 2-3 weeks
Experimental: as §1, §2, §3, §5
Note: ranges in brackets are in %.

CCc1cccc(CC)c1N(Cn1c(=O)sc2ccccc21)C(=O)CCl [Example 3, N--[(2-oxo-3(2H)--benzothiazolyl)methyl]-2'-6'-diethyl-2-chloroacetanilide]
Herbicidal rating (Barnyardgrass [1]; 0.28 kg/ha): 3 (75-100)
Herbicidal rating (Barnyardgrass [1]; 1.12 kg/ha): 3 (75-100)
Herbicidal rating (Barnyardgrass [1]; 5.6 kg/ha): 3 (75-100)
Herbicidal rating (Sorghum; 0.28 kg/ha): 0 (0-24)
Herbicidal rating (Sorghum; 1.12 kg/ha): 0 (0-24)
Herbicidal rating (Sorghum; 5.6 kg/ha): 0 (0-24)
Herbicidal rating (Soybean; 0.28 kg/ha): 0 (0-24)
Herbicidal rating (Soybean; 1.12 kg/ha): 0 (0-24)
Herbicidal rating (Soybean; 5.6 kg/ha): 0 (0-24)
Herbicidal rating (Cocklebur [2]; 0.28 kg/ha): 0 (0-24)
Herbicidal rating (Cocklebur [2]; 1.12 kg/ha): 0 (0-24)
Herbicidal rating (Cocklebur [2]; 5.6 kg/ha): 0 (0-24)
Herbicidal rating (Smartweed [3]; 0.28 kg/ha): 0 (0-24)
Herbicidal rating (Smartweed [3]; 1.12 kg/ha): 1 (25-49)
Herbicidal rating (Smartweed [3]; 5.6 kg/ha): 0 (0-24)
Herbicidal rating (Crabgrass; 0.28 kg/ha): 1 (25-49)
Herbicidal rating (Crabgrass; 1.12 kg/ha): 2 (50-74)
Herbicidal rating (Crabgrass; 5.6 kg/ha): 3 (75-100)
Herbicidal rating (Wild Buckwheat; 0.28 kg/ha): 0 (0-24)
Herbicidal rating (Wild Buckwheat; 1.12 kg/ha): 0 (0-24)
Herbicidal rating (Wild Buckwheat; 5.6 kg/ha): 0 (0-24)
Herbicidal rating (Morningglory [4]; 0.28 kg/ha): 0 (0-24)
Herbicidal rating (Morningglory [4]; 1.12 kg/ha): 0 (0-24)
Herbicidal rating (Morningglory [4]; 5.6 kg/ha): 0 (0-24)
Herbicidal rating (Panicum; 0.28 kg/ha): 0 (0-24)
Herbicidal rating (Panicum; 1.12 kg/ha): 1 (25-49)
Herbicidal rating (Panicum; 5.6 kg/ha): 3 (75-100)
Herbicidal rating (Wheat; 0.28 kg/ha): 0 (0-24)
Herbicidal rating (Wheat; 1.12 kg/ha): 0 (0-24)
Herbicidal rating (Wheat; 5.6 kg/ha): 0 (0-24)
Herbicidal rating (Lambsquarters [5]; 0.28 kg/ha): 0 (0-24)
Herbicidal rating (Lambsquarters [5]; 1.12 kg/ha): 0 (0-24)
Herbicidal rating (Lambsquarters [5]; 5.6 kg/ha): 0 (0-24)
Herbicidal rating (Velvetleaf [6]; 0.28 kg/ha): 0 (0-24)
Herbicidal rating (Velvetleaf [6]; 1.12 kg/ha): 0 (0-24)
Herbicidal rating (Velvetleaf [6]; 5.6 kg/ha): 0 (0-24)
Herbicidal rating (Rice; 0.28 kg/ha): 1 (25-49)
Herbicidal rating (Rice; 1.12 kg/ha): 0 (0-24)
Herbicidal rating (Rice; 5.6 kg/ha): 0 (0-24)
Herbicidal rating (Sugarbeet; 0.28 kg/ha): 0 (0-24)
Herbicidal rating (Sugarbeet; 1.12 kg/ha): 0 (0-24)
Herbicidal rating (Sugarbeet; 5.6 kg/ha): 0 (0-24)
Herbicidal rating (Hemp Sesbania; 0.28 kg/ha): 0 (0-24)
Herbicidal rating (Hemp Sesbania; 1.12 kg/ha): 0 (0-24)
Herbicidal rating (Hemp Sesbania; 5.6 kg/ha): 0 (0-24)
Herbicidal rating (Downy Brome [7]; 0.28 kg/ha): 0 (0-24)
Herbicidal rating (Downy Brome [7]; 1.12 kg/ha): 1 (25-49)
Herbicidal rating (Downy Brome [7]; 5.6 kg/ha): 2 (50-74)
Herbicidal rating (Barnyardgrass [8]; 5.6 kg/ha): 3 (75-100)
Herbicidal rating (Barnyardgrass [8]; 11.2 kg/ha): 3 (75-100)
Herbicidal rating (Yellow Nutsedge; 5.6 kg/ha): 1 (25-49)
Herbicidal rating (Yellow Nutsedge; 11.2 kg/ha): 1 (25-49)
Herbicidal rating (Cocklebur [9]; 5.6 kg/ha): 0 (0-24)
Herbicidal rating (Cocklebur [9]; 11.2 kg/ha): 0 (0-24)
Herbicidal rating (Smartweed [10]; 5.6 kg/ha): 0 (0-24)
Herbicidal rating (Smartweed [10]; 11.2 kg/ha): 0 (0-24)
Herbicidal rating (Canada Thistle; 5.6 kg/ha): 0 (0-24)
Herbicidal rating (Canada Thistle; 11.2 kg/ha): 0 (0-24)
Herbicidal rating (Johnsongrass; 5.6 kg/ha): 0 (0-24)
Herbicidal rating (Johnsongrass; 11.2 kg/ha): 0 (0-24)
Herbicidal rating (Quackgrass; 5.6 kg/ha): 0 (0-24)
Herbicidal rating (Quackgrass; 11.2 kg/ha): 1 (25-49)
Herbicidal rating (Morningglory [11]; 5.6 kg/ha): 0 (0-24)
Herbicidal rating (Morningglory [11]; 11.2 kg/ha): 0 (0-24)
Herbicidal rating (Lambsquarters [12]; 5.6 kg/ha): 0 (0-24)
Herbicidal rating (Lambsquarters [12]; 11.2 kg/ha): 0 (0-24)
Herbicidal rating (Velvetleaf [13]; 5.6 kg/ha): 0 (0-24)
Herbicidal rating (Velvetleaf [13]; 11.2 kg/ha): 0 (0-24)
Herbicidal rating (Downy Brome [14]; 5.6 kg/ha): 1 (25-49)
Herbicidal rating (Downy Brome [14]; 11.2 kg/ha): 1 (25-49)

CC1=C(N(Cn2c(=O)sc3ccc(Cl)cc32)C(=O)CCl)C(C)CCC1 (stereo not shown) [Example 6, N--[(5-chloro-2-oxo-3(2H)--benzothiazolyl)methyl]-N--(2,6-dimethyl-1-cyclohexen-1-yl)-2-chloroacetamide]
Herbicidal rating (Barnyardgrass [1]; 1.12 kg/ha): 0 (0-24)
Herbicidal rating (Barnyardgrass [1]; 5.6 kg/ha): 1 (25-49)
Herbicidal rating (Sorghum; 1.12 kg/ha): 0 (0-24)
Herbicidal rating (Sorghum; 5.6 kg/ha): 0 (0-24)
Herbicidal rating (Soybean; 1.12 kg/ha): 0 (0-24)
Herbicidal rating (Soybean; 5.6 kg/ha): 0 (0-24)
Herbicidal rating (Cocklebur [2]; 1.12 kg/ha): 0 (0-24)
Herbicidal rating (Cocklebur [2]; 5.6 kg/ha): 0 (0-24)
Herbicidal rating (Smartweed [3]; 1.12 kg/ha): 2 (50-74)
Herbicidal rating (Smartweed [3]; 5.6 kg/ha): 1 (25-49)
Herbicidal rating (Crabgrass; 1.12 kg/ha): 2 (50-74)
Herbicidal rating (Crabgrass; 5.6 kg/ha): 3 (75-100)
Herbicidal rating (Wild Buckwheat; 1.12 kg/ha): 0 (0-24)
Herbicidal rating (Wild Buckwheat; 5.6 kg/ha): 0 (0-24)
Herbicidal rating (Morningglory [4]; 1.12 kg/ha): 0 (0-24)
Herbicidal rating (Morningglory [4]; 5.6 kg/ha): 0 (0-24)
Herbicidal rating (Panicum; 1.12 kg/ha): 0 (0-24)
Herbicidal rating (Panicum; 5.6 kg/ha): 0 (0-24)
Herbicidal rating (Wheat; 1.12 kg/ha): 0 (0-24)
Herbicidal rating (Wheat; 5.6 kg/ha): 0 (0-24)
Herbicidal rating (Lambsquarters [5]; 1.12 kg/ha): 3 (75-100)
Herbicidal rating (Lambsquarters [5]; 5.6 kg/ha): 1 (25-49)
Herbicidal rating (Velvetleaf [6]; 1.12 kg/ha): 0 (0-24)
Herbicidal rating (Velvetleaf [6]; 5.6 kg/ha): 0 (0-24)
Herbicidal rating (Rice; 1.12 kg/ha): 1 (25-49)
Herbicidal rating (Rice; 5.6 kg/ha): 0 (0-24)
Herbicidal rating (Sugarbeet; 1.12 kg/ha): 1 (25-49)
Herbicidal rating (Sugarbeet; 5.6 kg/ha): 1 (25-49)
Herbicidal rating (Hemp Sesbania; 1.12 kg/ha): 3 (75-100)
Herbicidal rating (Hemp Sesbania; 5.6 kg/ha): 3 (75-100)
Herbicidal rating (Downy Brome [7]; 1.12 kg/ha): 0 (0-24)
Herbicidal rating (Downy Brome [7]; 5.6 kg/ha): 0 (0-24)
Herbicidal rating (Barnyardgrass [8]; 5.6 kg/ha): 1 (25-49)
Herbicidal rating (Barnyardgrass [8]; 11.2 kg/ha): 3 (75-100)
Herbicidal rating (Yellow Nutsedge; 5.6 kg/ha): 0 (0-24)
Herbicidal rating (Yellow Nutsedge; 11.2 kg/ha): 0 (0-24)
Herbicidal rating (Cocklebur [9]; 5.6 kg/ha): 0 (0-24)
Herbicidal rating (Cocklebur [9]; 11.2 kg/ha): 0 (0-24)
Herbicidal rating (Smartweed [10]; 5.6 kg/ha): 0 (0-24)
Herbicidal rating (Smartweed [10]; 11.2 kg/ha): 0 (0-24)
Herbicidal rating (Canada Thistle; 5.6 kg/ha): 0 (0-24)
Herbicidal rating (Canada Thistle; 11.2 kg/ha): 1 (25-49)
Herbicidal rating (Johnsongrass; 5.6 kg/ha): 0 (0-24)
Herbicidal rating (Johnsongrass; 11.2 kg/ha): 0 (0-24)
Herbicidal rating (Quackgrass; 5.6 kg/ha): 0 (0-24)
Herbicidal rating (Quackgrass; 11.2 kg/ha): 1 (25-49)
Herbicidal rating (Morningglory [11]; 5.6 kg/ha): 0 (0-24)
Herbicidal rating (Morningglory [11]; 11.2 kg/ha): 0 (0-24)
Herbicidal rating (Lambsquarters [12]; 5.6 kg/ha): 0 (0-24)
Herbicidal rating (Lambsquarters [12]; 11.2 kg/ha): 3 (75-100)
Herbicidal rating (Velvetleaf [13]; 5.6 kg/ha): 0 (0-24)
Herbicidal rating (Velvetleaf [13]; 11.2 kg/ha): 0 (0-24)
Herbicidal rating (Downy Brome [14]; 5.6 kg/ha): 0 (0-24)
Herbicidal rating (Downy Brome [14]; 11.2 kg/ha): 0 (0-24)
